Key:
Format in all cases: cell-based, human
[1] = tested on: hiPSC chondrogenic pellets; assay: Safranin-O histology of hiPSC chondrogenic pellets
Method: Chondrogenic differentiation. Cells dissociated at the Cp stage were resuspended at 5×10^5 cells per mL in chondrogenic medium consisting of DMEM/F-12, 1% FBS, 1% ITS+, 55 μM β-mertcaptoethanol, 100 nM dexamethasone (DEX; Sigma-Aldrich, #D4902), 1% NEAA (Gibco, #11140050), 1% P/S, 10 ng ml^−1 human transforming growth factor-beta 3 (TGF-β3; R&D Systems, #243-B3-010), 50 μg ml^−1 L-ascorbic acid 2-phosphate (ascorbate; Sigma-Aldrich, #A8960), and 40 μg ml^−1 L-Proline (proline; Sigma-Aldrich, #P5607). Cells were then centrifuged for 5 min at 300×g to form a pellet. Chondrogenic pellets were cultured at 37° C. for up to the timepoints required for various experiments.
WNT-C59 and ML329 treatment for WNT and MITF inhibition. For WNT-C59 treatment for WNT inhibition during chondrogenesis, pellets were treated with either 10 ng ml^−1 TGF-β3 (control group) or a combination of 10 ng ml^−1 TGF-β3 and 1 μM WNT-C59 in a chondrogenic medium from d0 to d42 as appropriate. For WNT-C59 and ML329 treatment (ML, Axon Medchem, HY-101464) for WNT and MITF inhibition during chondrogenesis, pellets were treated with either 10 ng ml^−1 TGF-β3 (control group), a combination of 10 ng ml^−1 TGF-β3 and 1 μM ML, a combination of 10 ng ml^−1 TGF-β3 and 1 μM WNT-C59, or a combination of 10 ng ml^−1 TGF-β3, 1 μM ML and 1 μM WNT-C59 in chondrogenic medium from d0 to d42 as appropriate. […]

[2] = tested on: hMSC pellets; assay: Chondrogenesis of hMSC pellets with WNT inhibition (Saf-O, GAG/DNA)
Excerpt: hMSCs and culture. Discarded and deidentified waste tissue from the iliac crests of adult bone marrow transplant donors was collected in accordance with the institutional review board of Washington University in Saint Louis. Human bone marrow-derived MSCs (hMSCs) were isolated by their physical adherence to plastic culture vessels. Cells were expanded and maintained in an expansion medium consisting of DMEM-low glucose (Thermo Fisher Scientific, #11885092), 1 penicillin/streptomycin (P/S, Thermo Fisher Scientific, #15140-122), 10% lot-selected FBS (Atlanta Biologicals, #S11550), and 1 ng ml^−1 basic fibroblast growth factor (FGF) (R&D Systems, #233-FB). Three individual donors were used as biologic replicates in subsequent experiments.
WNT-C59 and ML329 treatment for WNT and MITF inhibition. For WNT-C59 treatment for WNT inhibition during chondrogenesis, pellets were treated with either 10 ng ml^−1 TGF-β3 (control group) or a combination of 10 ng ml^−1 TGF-β3 and 1 μM WNT-C59 in a chondrogenic medium from d0 to d42 as appropriate. […]
Biochemical analysis of cartilaginous matrix production. […] GAG content, as calculated based on the standard curve, was normalized to double-stranded DNA content to obtain the GAG/DNA ratio.

[3] = tested on: hiPSC chondrogenic pellets; assay: Immunohistochemistry of collagens in pellets; conditions: pellet culture
Method: WNT ligands treatment during chondrogenesis. For WNT ligands treatment during chondrogenesis, pellets were treated with either 10 ng ml^−1 TGF-β3 (control group) or a combination of 10 ng ml^−1 TGF-β3 and 100 ng ml^−1 individual WNT ligand (WNT2B, WNT3A, WNT4, WNT5B, or WNT7B, all from R&D system) in chondrogenic medium from d0 to d42 as appropriate. For WNT ligands treatment during the Cp stage, cells were supplemented with either 20 ng ml^−1 BMP4 (R&D Systems, #314-BP-010) alone (control group), a combination of 20 ng ml^−1 BMP4 and 1 μM WNT-059, or a combination of 20 ng ml^−1 BMP4 and 100 ng ml^−1 WNT3A (R&D Systems, #5036-WN-010) in mesodermal differentiation medium from d7 to d12.
Immunohistochemistry. Histologic sections (8 μm thick) of the pellets were rinsed with xylenes three times and rehydrated before labeling. Antigen retrieval was performed with 0.02% proteinase K for 3 min at 37° C. for COL2A1 and COL6A1 and with pepsin for 5 min at room temperature for COL1A1 and COL10A1 followed by peroxidase quench then serum blocking for 30 min at room temperature. […]

## Cc1cc(-c2ccc(CC(=O)Nc3ccc(-c4cccnc4)cc3)cc2)ccn1 [WNT-C59]
[1]; WNT-C59 at Cp stage
  chondrogenesis when WNTs inhibited at the Cp stage: severely impaired
[1]; treatment during pellet culture, vs standard TGF-β3
  chondrocyte homogeneity (Saf-O staining): increased
[2]; donor 1 and donor 3, vs TGF-β3 alone
  GAG/DNA ratio of hMSC pellets: significantly increased
[2]; hMSCs from 3 donors, WNT-C59 during pellet culture
  chondrogenesis of hMSC pellets: increased
[3]
  COL1A1 and COL10A1 staining/production: low
